Reference: US12097241B2, “Methods of treating kidney failure, and/or improving or stablizing renal function using modified relaxin polypeptides” (BRISTOL-MYERS SQUIBB COMPANY, priority 2017, dated 2024)

These molecules were tested against T1, human RXFP1 receptor (Homo sapiens, UniProt Q9HBX9) (assay: Intracellular cAMP accumulation assay).
T1 construct: expressed in transfected cells
T1 sequence (Q9HBX9 1-757): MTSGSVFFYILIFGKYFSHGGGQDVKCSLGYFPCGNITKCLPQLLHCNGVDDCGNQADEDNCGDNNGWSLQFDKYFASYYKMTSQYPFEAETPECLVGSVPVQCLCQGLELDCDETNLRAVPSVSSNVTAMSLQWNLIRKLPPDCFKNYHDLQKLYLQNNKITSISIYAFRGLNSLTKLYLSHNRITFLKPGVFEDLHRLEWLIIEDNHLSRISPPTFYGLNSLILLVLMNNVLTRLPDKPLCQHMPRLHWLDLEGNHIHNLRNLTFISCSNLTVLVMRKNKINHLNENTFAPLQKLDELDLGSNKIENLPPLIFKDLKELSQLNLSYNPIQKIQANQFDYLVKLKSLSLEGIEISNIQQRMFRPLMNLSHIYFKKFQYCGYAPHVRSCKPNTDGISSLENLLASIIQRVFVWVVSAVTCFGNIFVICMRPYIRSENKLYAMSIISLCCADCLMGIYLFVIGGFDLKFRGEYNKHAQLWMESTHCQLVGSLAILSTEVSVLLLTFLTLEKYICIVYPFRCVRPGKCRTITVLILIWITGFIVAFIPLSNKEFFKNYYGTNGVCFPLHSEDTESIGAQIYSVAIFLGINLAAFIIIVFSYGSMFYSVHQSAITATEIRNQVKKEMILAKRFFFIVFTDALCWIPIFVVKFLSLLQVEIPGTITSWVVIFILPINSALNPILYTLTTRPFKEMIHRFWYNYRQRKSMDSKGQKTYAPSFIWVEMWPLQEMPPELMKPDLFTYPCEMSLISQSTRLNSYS
Format: cell-based
In the case of `CC[C@H](C)[C@@H]1NC(=O)[C@H](C)NC(=O)[C@H]([C@@H](C)CC)NC(=O)[C@H](CCC(N)=O)NC(=O)[C@H](C)NC(=O)[C@H](CCCNC(=N)N)NC(=O)[C@H](C(C)C)NC(=O)[C@H](CC(C)C)NC(=O)[C@H](CCC(=O)O)NC(=O)[C@H](CCCNC(=N)N)NC(=O)CNC(=O)[C@@H](NC(=O)[C@H](CC(C)C)NC(=O)[C@H](CCCCN)NC(=O)[C@@H](NC(=O)[C@@H](NC(=O)[C@H](CCC(=O)O)NC(=O)[C@H](CCC(=O)O)NC(=O)[C@H](CCSC)NC(=O)[C@H](Cc2c[nH]c3ccccc23)NC(=O)[C@H](CO)NC(=O)[C@H](C)N)C(C)C)[C@@H](C)CC)CSSC[C@@H]2NC(=O)[C@@H](NC(=O)[C@H](CCCCN)NC(=O)[C@H](CC(N)=O)NC(=O)[C@H](C)NC(=O)[C@H](CC(C)C)NC(=O)[C@H](C)NC(=O)[C@H](CO)NC(=O)[C@H](Cc3ccc(O)cc3)NC(=O)[C@H](CC(C)C)NC(=O)[C@@H](N)Cc3ccc(C(C)=NOCCNC(=O)[C@H](CCCCN)NC(=O)[C@H](CCCCN)NC(=O)[C@H](CO)NC(=O)[C@H](C)NC(=O)CNC(=O)[C@H](CO)NC(=O)[C@H](C)NC(=O)CNC(=O)CC[C@H](NC(=O)CCCCCCCCCCCCC(=O)O)C(=O)O)cc3)CSSC[C@H](NC(=O)CNC(=O)[C@H](C(C)C)NC(=O)[C@H](Cc3c[nH]cn3)NC2=O)C(=O)N[C@@H]([C@@H](C)O)C(=O)N[C@@H](CCCCN)C(=O)N[C@@H](CCCNC(=N)N)C(=O)N[C@@H](CO)C(=O)N[C@@H](CC(C)C)C(=O)N[C@@H](C)C(=O)N[C@@H](CCCNC(=N)N)C(=O)N[C@@H](Cc2ccccc2)C(=O)N[C@H](C(=O)O)CSSC[C@@H](C(=O)NCC(=O)N[C@@H](CCSC)C(=O)N[C@@H](CO)C(=O)N[C@H](C(=O)N[C@@H](Cc2c[nH]c3ccccc23)C(=O)N[C@@H](CO)C(=O)O)[C@@H](C)O)NC1=O` [AQ1-KKSAGSAG-Glu^γ-C13-COOH], the EC50 is reported as 0.27 nM.
Work on `CC[C@H](C)[C@@H]1NC(=O)[C@H](C)NC(=O)[C@H]([C@@H](C)CC)NC(=O)[C@H](CCC(N)=O)NC(=O)[C@H](C)NC(=O)[C@H](CCCNC(=N)N)NC(=O)[C@H](C(C)C)NC(=O)[C@H](CC(C)C)NC(=O)[C@H](CCC(=O)O)NC(=O)[C@H](CCCNC(=N)N)NC(=O)CNC(=O)[C@@H](NC(=O)[C@H](CC(C)C)NC(=O)[C@H](CCCCN)NC(=O)[C@@H](NC(=O)[C@@H](NC(=O)[C@H](CCC(=O)O)NC(=O)[C@H](CCC(=O)O)NC(=O)[C@H](CCSC)NC(=O)[C@H](Cc2c[nH]c3ccccc23)NC(=O)[C@H](CO)NC(=O)[C@H](C)N)C(C)C)[C@@H](C)CC)CSSC[C@@H]2NC(=O)[C@@H](NC(=O)[C@H](CCCCN)NC(=O)[C@H](CC(N)=O)NC(=O)[C@H](C)NC(=O)[C@H](CC(C)C)NC(=O)[C@H](C)NC(=O)[C@H](CO)NC(=O)[C@H](Cc3ccc(O)cc3)NC(=O)[C@H](CC(C)C)NC(=O)[C@@H](N)Cc3ccc(/C(C)=N/OCCNC(=O)CN(C)C(=O)CN(C)C(=O)CN(C)C(=O)CN(C)C(=O)[C@H](CO)NC(=O)CN(C)C(=O)CN(C)C(=O)CN(C)C(=O)CN(C)C(=O)CC[C@H](NC(=O)CCCCCCCCCCCCC(=O)O)C(=O)O)cc3)CSSC[C@H](NC(=O)CNC(=O)[C@H](C(C)C)NC(=O)[C@H](Cc3c[nH]cn3)NC2=O)C(=O)N[C@@H]([C@@H](C)O)C(=O)N[C@@H](CCCCN)C(=O)N[C@@H](CCCNC(=N)N)C(=O)N[C@@H](CO)C(=O)N[C@@H](CC(C)C)C(=O)N[C@@H](C)C(=O)N[C@@H](CCCNC(=N)N)C(=O)N[C@@H](Cc2ccccc2)C(=O)N[C@H](C(=O)O)CSSC[C@@H](C(=O)NCC(=O)N[C@@H](CCSC)C(=O)N[C@@H](CO)C(=O)N[C@H](C(=O)N[C@@H](Cc2c[nH]c3ccccc23)C(=O)N[C@@H](CO)C(=O)O)[C@@H](C)O)NC1=O` yielded an EC50 of 0.39 nM.
Work on `CC[C@H](C)[C@@H]1NC(=O)[C@H](C)NC(=O)[C@H]([C@@H](C)CC)NC(=O)[C@H](CCC(N)=O)NC(=O)[C@H](C)NC(=O)[C@H](CCCNC(=N)N)NC(=O)[C@H](C(C)C)NC(=O)[C@H](CC(C)C)NC(=O)[C@H](CCC(=O)O)NC(=O)[C@H](CCCNC(=N)N)NC(=O)CNC(=O)[C@@H](NC(=O)[C@H](CC(C)C)NC(=O)[C@H](CCCCN)NC(=O)[C@@H](NC(=O)[C@@H](NC(=O)[C@H](CCC(=O)O)NC(=O)[C@H](CCC(=O)O)NC(=O)[C@H](CCSC)NC(=O)[C@H](Cc2c[nH]c3ccccc23)NC(=O)[C@H](CO)NC(=O)[C@H](C)N)C(C)C)[C@@H](C)CC)CSSC[C@@H]2NC(=O)[C@@H](NC(=O)[C@H](CCCCN)NC(=O)[C@H](CC(N)=O)NC(=O)[C@H](C)NC(=O)[C@H](CC(C)C)NC(=O)[C@H](C)NC(=O)[C@H](CO)NC(=O)[C@H](Cc3ccc(O)cc3)NC(=O)[C@H](CC(C)C)NC(=O)[C@@H](N)Cc3ccc(/C(C)=N/OCCNC(=O)[C@H](CCCCN)NC(=O)CNC(=O)[C@@H]4CCCN4C(=O)CC[C@H](NC(=O)CCCCCCCCCCCCCC(=O)O)C(=O)O)cc3)CSSC[C@H](NC(=O)CNC(=O)[C@H](C(C)C)NC(=O)[C@H](Cc3c[nH]cn3)NC2=O)C(=O)N[C@@H]([C@@H](C)O)C(=O)N[C@@H](CCCCN)C(=O)N[C@@H](CCCNC(=N)N)C(=O)N[C@@H](CO)C(=O)N[C@@H](CC(C)C)C(=O)N[C@@H](C)C(=O)N[C@@H](CCCNC(=N)N)C(=O)N[C@@H](Cc2ccccc2)C(=O)N[C@H](C(=O)O)CSSC[C@@H](C(=O)NCC(=O)N[C@@H](CCSC)C(=O)N[C@@H](CO)C(=O)N[C@H](C(=O)N[C@@H](Cc2c[nH]c3ccccc23)C(=O)N[C@@H](CO)C(=O)O)[C@@H](C)O)NC1=O` [AQ1-KGP-Glu^γ-C14-COOH] yielded an EC50 of 0.27 nM.
With `CC[C@H](C)[C@@H]1NC(=O)[C@H](C)NC(=O)[C@H]([C@@H](C)CC)NC(=O)[C@H](CCC(N)=O)NC(=O)[C@H](C)NC(=O)[C@H](CCCNC(=N)N)NC(=O)[C@H](C(C)C)NC(=O)[C@H](CC(C)C)NC(=O)[C@H](CCC(=O)O)NC(=O)[C@H](CCCNC(=N)N)NC(=O)CNC(=O)[C@@H](NC(=O)[C@H](CC(C)C)NC(=O)[C@H](CCCCN)NC(=O)[C@@H](NC(=O)[C@@H](NC(=O)[C@H](CCC(=O)O)NC(=O)[C@H](CCC(=O)O)NC(=O)[C@H](CCSC)NC(=O)[C@H](Cc2c[nH]c3ccccc23)NC(=O)[C@H](CO)NC(=O)[C@H](C)N)C(C)C)[C@@H](C)CC)CSSC[C@@H]2NC(=O)[C@@H](NC(=O)[C@H](CCCCN)NC(=O)[C@H](CC(N)=O)NC(=O)[C@H](C)NC(=O)[C@H](CC(C)C)NC(=O)[C@H](C)NC(=O)[C@H](CO)NC(=O)[C@H](Cc3ccc(O)cc3)NC(=O)[C@H](CC(C)C)NC(=O)[C@@H](N)Cc3ccc(C(C)=NOCCNC(=O)[C@H](CCCCN)NC(=O)[C@H](CCCCN)NC(=O)[C@H](CO)NC(=O)CNC(=O)CNC(=O)[C@H](CO)NC(=O)CNC(=O)CNC(=O)CC[C@H](NC(=O)CCCCCCCCCCCCC(=O)O)C(=O)O)cc3)CSSC[C@H](NC(=O)CNC(=O)[C@H](C(C)C)NC(=O)[C@H](Cc3c[nH]cn3)NC2=O)C(=O)N[C@@H]([C@@H](C)O)C(=O)N[C@@H](CCCCN)C(=O)N[C@@H](CCCNC(=N)N)C(=O)N[C@@H](CO)C(=O)N[C@@H](CC(C)C)C(=O)N[C@@H](C)C(=O)N[C@@H](CCCNC(=N)N)C(=O)N[C@@H](Cc2ccccc2)C(=O)N[C@H](C(=O)O)CSSC[C@@H](C(=O)NCC(=O)N[C@@H](CCSC)C(=O)N[C@@H](CO)C(=O)N[C@H](C(=O)N[C@@H](Cc2c[nH]c3ccccc23)C(=O)N[C@@H](CO)C(=O)O)[C@@H](C)O)NC1=O` [AQ1-KKSGGSGG-Glu^γ-C13-COOH] the EC50 was 0.34 nM.
